From patent US11464773B2, “Nutlin-3a for treatment of proliferative vitreoretinopathy” (The Schepens Eye Research Institute, Inc., priority 2012, dated 2022)
“Also recorded” adds a separate entry of the source.

How the values were obtained:
sh GFP cells = assay: Collagen contraction assay, RV-induced, sh GFP RCFs; type: cell-based, rabbit; settings: Imatinib 10 μM, day 3
From the text: (§1) FIGS. 10A-10B include a series of bar graphs showing that inhibiting PDGFRα kinase activity blocked RV-induced collagen contraction. The indicated RCFs (50,000 cells/ml) (FIG. 10A) or F cells (1 million cells/ml) (FIG. 10B) were subjected to a collagen contraction assays as described below. […] The panels below the bar graphs show photographs of representative gels; the data presented are representative of 3 independent experiments. The data were subjected to a paired t test; “*” denoted a statistically significant difference.
(§2) Cells were trypsinized, washed and resuspended in 1.5 mg/ml of neutralized collagen I (INAMED, Fremont, Calif.) (pH 7.2) at a density of 1×10^6 cells/ml for RPEM or 5×10^4 cells/ml for RCFs. The mixture was aliquoted into wells of a 24-well plate that had been preincubated overnight with 5 mg/ml bovine serum albumin in PBS. The collagen solution was solidified by incubating at 37° C. for 90 min, and overlaid with medium containing the desired agents. The media were replaced every day, and the gel diameter was measured on day 3. The gel area was calculated using the formula πr2, where r is the radius of the gel.

Fβ cells = assay: Collagen contraction assay, RV-induced, Fβ cells; type: cell-based, mouse; settings: Imatinib 10 μM, day 3
From the text: as §1
(§3) RPEM cells are RPE cells derived from a human epiretinal membrane, as previously described (Wong C A et al., 2002 Can J Ophthalmol, 37:211-220). Primary rabbit conjunctival fibroblasts (RCFs) were obtained and cultured as described previously (Ikuno Y et al., 2002 Invest Ophthalmol Vis Sci, 43:2406-2411). RCFs that stably expressed the shRNA targeting vector specific for GFP, PDGFRα, p53 or PDGFRα and p53 were designated sh GFP, sh PDGFRα sh p53 and sh PDGFRα/p53, respectively.
(§4) Cells were trypsinized, washed and resuspended in 1.5 mg/ml of neutralized collagen I (INAMED, Fremont, Calif.) (pH 7.2) at a density of 1×10^6 cells/ml for RPEM or 5×10^4 cells/ml for RCFs. […] The media were replaced every day, and the gel diameter was measured on day 3. The gel area was calculated using the formula πr2, where r is the radius of the gel.

Fα cells = assay: Collagen contraction assay, RV-induced, Fα cells; type: cell-based, mouse; settings: Imatinib 10 μM, day 3
From the text: as §1, §3, §4

p53 [1] = assay: Western blot: RV-mediated decline in the level of p53 in RCFs; type: cell-based, rabbit
Experimental: (§5) FIG. 1A is a photograph of a western blot showing the impact of Nutlin-3a on RV-mediated signaling events. Primary rabbit conjunctival fibroblasts (RCFs) were pre-treated with either Nutlin-3a (10 μM), or vehicle for 30 min and then exposed to either RV (diluted 1:3 in Dulbecco's Modified Eagle Medium (DMEM)), or DMEM for 2 hr. The resulting cell lysates were subjected to western blot analysis using the indicated antibodies. The numbers are a ratio of p-PDGFRα/PDGFRα, p-Akt/Akt or p53/RasGAP (Ras GTPase) activating protein. […] FIG. 1B is a bar chart showing the impact of Nutlin-3a on RV-mediated contraction. RCFs were subjected to the collagen contraction assay as described above. Nutlin-3a (10 μM) or vehicle was included as indicated. The data were subjected to a paired t test; “*” denoted a statistically significant difference.
FIGS. 8A-8B include a series of photographs showing the minimum effective dose and maximum tolerated dose of Nutlin-3a. FIG. 8A is a series of photomicrographs of western blots showing RCFs pretreated with the indicated concentrations of Nutlin-3a for 30 min, and then exposed to RV (diluted 1:3 in DMEM) for 2 hours. […]
(§6) Cells were grown to 90% confluence in serum-containing medium, and then incubated for 24 hr in medium without serum. […] Signal intensity was determined by densitometry and analyzed with the Quantity One (Bio-Rad) software.

PDGFRα = assay: Western blot: RV-induced phosphorylation of PDGFRα in RCFs; type: cell-based, rabbit; settings: Nutlin-3a 10 μM, RV 2 hr
Experimental: as §5
(§7) Cells were grown to 90% confluence in serum-containing medium, and then incubated for 24 hr in medium without serum. Cells were stimulated (as detailed for each experiment), washed twice with ice-cold phosphate buffered saline (PBS), and lysed in extraction buffer (10 mM Tris-HCl, pH 7.4, 5 mM EDTA, 50 mM NaCl, 50 mM NaF, 1% Triton X-100, 20 μg/ml aprotinin, 2 mM Na3VO4, 1 mM phenylmethylsulfonyl fluoride). […] Signal intensity was determined by densitometry and analyzed with the Quantity One (Bio-Rad) software.

Akt = assay: Western blot: RV-induced activation of Akt in RCFs; type: cell-based, rabbit; settings: Nutlin-3a 10 μM, RV 2 hr
Experimental: as §5, §7

[2] = tested on: primary rabbit conjunctival fibroblasts (RCFs); assay: Collagen I contraction assay, RV-induced, RCFs; type: cell-based; settings: Nutlin-3a 10 μM, gel measured on day 3
Experimental: as §5
as §2, with “The collagen solution was solidified by incubating at 37° C. for 90 min, and overlaid with medium containing the desired agents.” left out

[3] = tested on: primary rabbit conjunctival fibroblasts (RCFs); assay: Maximum tolerated dose in cultured RCFs; type: cell-based; settings: RCFs in DMEM+5% FBS, medium replaced every 24 hours, day 3
Experimental: FIGS. 8A-8B include a series of photographs showing the minimum effective dose and maximum tolerated dose of Nutlin-3a. FIG. 8A is a series of photomicrographs of western blots showing RCFs pretreated with the indicated concentrations of Nutlin-3a for 30 min, and then exposed to RV (diluted 1:3 in DMEM) for 2 hours. Cells were lysed and resulting lysates were subjected to western blot analysis using the indicated antibodies. The data shown are representative of three independent experiments. FIG. 8B is a series of photographs showing RCFs grown to near confluence in DMEM+10% FBS, the medium was replaced with DMEM+5% FBS+the indicated concentration of Nutlin-3a. The medium was replaced every 24 hours, and the photographs were taken on day 3. The data shown are representative of two independent experiments. The scale bar is 50 μm.

retina = assay: Retinal toxicity after intravitreal injections in rabbits; type: in vivo; settings: multiple intravitreal injection of up to 20 micromolar, day 0, 2 and 4; fundus exams to day 14, histology
Experimental: FIGS. 9A-9B include a series of photographs showing epiretinal membranes from rabbits subjected to the PVR protocol. Rabbits that underwent a gas vitrectomy were intravitreally injected with the indicated concentration of Nutlin-3a on day 0, 2 and 4. The rabbits underwent a fundus examination on day 1, 3, 5, 7 and 14. Following the last fundus exam rabbits were euthanized, eyes were enucleated and fixed in 10% formalin. Sections were prepared, stained with hematoxylin and eosin, and then photographed. Representative photos of a Nutlin-3a (FIG. 9A) and vehicle (FIG. 9B) injected eye are presented. Arrowheads and arrows point to the retina and epiretinal membrane, respectively; scale bar: 50 μm. The lack of the retinal pigment epithelial cell layer is an artifact related to processing of the tissue.

[4] = tested on: proliferative vitreoretinopathy (PVR); assay: Rabbit model for PVR (Fastenberg scale); type: in vivo, Dutch Belted rabbits
Experimental: (§8) FIGS. 2A-2B include a dot plot and a series of photomicrographs showing that Nutlin -3a prevented retinal detachment and elevated p53 in epiretinal membranes. FIG. 2A is a dot plot illustrating the impact of Nutlin-3a on experimental PVR. RCFs were used to induce PVR as described below. The indicated rabbits received no additional injections (none) or 0.1 cc injections of either vehicle, or Nutlin-3a (20 μM) on day 0, 2 and 4. The data were subjected to an unpaired t test or one way Analysis of Variance (ANOVA) test; “*” denoted a statistically significant difference. FIG. 2B is a series of photographs showing that Nutlin-3a enhanced expression of p53 in epiretinal membranes. At the end of the experiment (day 28), the eyes were enucleated, and paraffin sections of whole eyes were subjected to p53 immunohistochemistry. The arrows point to the epiretinal membrane (the arrowheads denote the retina and the brown color indicates p53). The left and right panels are from a Nutlin-3a injected animal, whereas the middle panel is from a rabbit treated with vehicle. The left and middle panels were stained with the p53 antibody, whereas the right panel was stained with non-immune IgG. The scale bar is 50 μm.
PVR was induced in Dutch Belted rabbits, purchased from Covance (Denver, Pa.), as previously described (Lei H et al., 2009 Invest Ophthalmol Vis Sci, 50:3394-3403). Briefly, a gas vitrectomy was performed by injecting 0.1 ml of perfluoropropane (C3F8) (Alcon, Fort Worth, Tex.) into vitreous. One week later, the right eye of rabbits was injected in one of two ways. For the experiment injecting RCFs expressing shRNAs, 0.1 ml of DMEM containing 1×10^5 RCFs that were modified as outlined in the legend were injected along with 0.1 ml rabbit platelet-rich plasma. For the Nutlin-3a experiment, all rabbits were injected with 0.1 ml of DMEM containing 1×10^5 unmodified RCFs, 0.1 ml rabbit platelet rich plasma and either not injected a third time, or injected with vehicle, or 0.1 ml of 200 μM Nutlin-3a. The vehicle or Nutlin-3a injection was repeated on day 3 and 5. The retinal status was evaluated with an indirect ophthalmoscope fitted with a +30 D fundus lens on day 1, 3, 5, 7, 14, 21 and 28. PVR was graded according to the Fastenberg scale of classification 41: stage 0, no disease; stage 1, epiretinal membrane; stage 2, vitreoretinal traction without retinal detachment; stage 3, localized retinal detachment (1-2 quadrants); stage 4, extensive retinal detachment (2-4 quadrants without complete detachment); stage 5, complete retinal detachment. On day 28, animals were sacrificed, and eyes were enucleated and frozen at −80° C.

p53 [5] = assay: p53 immunohistochemistry of epiretinal membranes from PVR rabbits; type: in vivo, rabbit; settings: day 28, immunohistochemistry
Experimental: as §8
Rabbit eyeballs were fixed in 10% formalin for 48 hr and embedded in paraffin after dehydration. […]

p53 [6] = assay: Western blot: HV-mediated fall in the level of p53 in RPE cells from a human PVR membrane; type: cell-based; settings: RPE cells from human epiretinal membrane, HV pool of 5 PVR patients diluted 1:3
From the text: (§9) FIGS. 7A-7B include a photograph of a western blot and a bar chart showing p53 attenuated human vitreous humor (HV)-driven collagen gel contraction. FIG. 7A is a photograph of a western blot showing the impact of Nutlin-3a on HV-mediated signaling events. Methods were the same as FIG. 3A, but the RPE cells from a human patient epiretinal membrane were used in place of RCF, and HV (a pool of vitreous from 5 PVR patients diluted 1:3 in DMEM) was used in place of RV. The data presented are representative of three independent experiments. FIG. 7B is a bar chart showing the impact of Nutlin-3a on HV-mediated contraction. This experiments were the same as FIG. 3B with the modification noted in FIG. 7A. The data were subjected to a paired t test. “*” denoted a statistically significant difference. The data shown are representative of three independent experiments.
(§10) RPEM cells are RPE cells derived from a human epiretinal membrane, as previously described (Wong C A et al., 2002 Can J Ophthalmol, 37:211-220). Primary rabbit conjunctival fibroblasts (RCFs) were obtained and cultured as described previously (Ikuno Y et al., 2002 Invest Ophthalmol Vis Sci, 43:2406-2411). […]
as §6

[7] = tested on: upstream signaling events; assay: Western blot: HV-mediated upstream signaling events in RPE cells from a human PVR membrane; type: cell-based; settings: RPE cells from human epiretinal membrane, HV diluted 1:3
From the text: as §9, §10, §6

[8] = tested on: RPE cells isolated from a human PVR membrane; assay: Collagen contraction assay, HV-stimulated, RPE cells from a human PVR membrane; type: cell-based; settings: RPE cells from human epiretinal membrane, HV diluted 1:3
From the text: as §9
RPEM cells are RPE cells derived from a human epiretinal membrane, as previously described (Wong C A et al., 2002 Can J Ophthalmol, 37:211-220). […]
as §4

SMILES | RV-induced contraction in sh GFP cells (sh GFP cells) | RV-induced contraction in cells expressing PDGFRβ (Fβ) (Fβ cells) | RV-stimulated contraction in cells expressing PDGFRα (Fα) (Fα cells) | RV-mediated decline in the level of p53 (p53 [1]; RCFs pre-treated with Nutlin-3a 10 μM 30 min, then RV (1:3 in DMEM) 2 hr) | minimum dose to prevent the RV-induced reduction of p53 (p53 [1]; RCFs pretreated 30 min, RV (1:3) 2 hours) [µM] | RV-induced phosphorylation of PDGFRα (PDGFRα) | RV-induced activation of Akt (Akt) | RV-mediated contraction of collagen gels [2] | maximum tolerated dose [3] [µM] | overt signs of retinal toxicity (retina) | animals that succumbed to even partial retinal detachment (stage 3 or 4) ([4]; by day 28, intravitreal Nutlin-3a injections) [%] | formation of epiretinal membranes (stage 1 and 2) ([4]; intravitreal Nutlin-3a injections, to day 28) | retinal detachment ([4]; series of intravitreal injections) | rabbits that developed vitreal traction (stage 2) ([4]; series of intravitreal injections, end of experiment (day 28)) [%] | p53 level in epiretinal membranes versus vehicle-injected controls (p53 [5]) | HV-induced fall in the level of p53 (p53 [6]) | upstream signaling events in HV-treated cells [7] | HV-stimulated contraction of RPE-containing collagen gels [8]
Cc1ccc(NC(=O)c2ccc(CN3CCN(C)CC3)cc2)cc1Nc1nccc(-c2cccnc2)n1 [Imatinib] | completely blocked | did not improve RV-induced contraction or generate sensitivity to Imatinib | erased |  |  |  |  |  |  |  |  |  |  |  |  |  |  | 
COc1ccc(C2=N[C@@H](c3ccc(Cl)cc3)[C@@H](c3ccc(Cl)cc3)N2C(=O)N2CCNC(=O)C2)c(OC(C)C)c1 (single isomer, unassigned) [Nutlin-3a] |  |  |  | effectively blocked | 2 | no effect | no effect | effectively blocked | 30 | did not produce overt signs of retinal toxicity | 0 | slowed formation of membranes; also recorded: did form membranes | completely prevented | 50 | higher | prevented the precipitous fall | without impacting upstream signaling events | inhibited
